{"source": "ChEMBL document CHEMBL2429839", "about": "“Synthesis and characterization of 2-(4-((1-alkyl or aryl-1H-1,2,3-triazol-4-yl)methoxy)phenyl)naphtho[1,2-d]oxazoles for protein tyrosine phosphatase 1B inhibitory activity” (Med Chem Res, 2013)", "key": {"[1]": {"molecular_target": "Tyrosine-protein phosphatase non-receptor type 1 (Rattus norvegicus) (UniProt P20417)", "test": "(§1) Inhibition of PTP1B in rat liver homogenates using p-nitro phenyl phosphate as substrate at 10 uM preincubated for 30 mins followed by substrate addition measured after 10 mins relative to control", "assay_type": "tissue-based"}, "Rattus norvegicus [2]": {"test_system": "Rattus norvegicus", "test": "Antidiabetic activity in Sprague-Dawley albino rat assessed as inhibition of blood glucose level at 50 mg/kg, ip administered 10 mins prior to oral glucose challenge measured after 10 mins by glucometer relative to control", "assay_type": "functional"}, "[3]": {"molecular_target": "T1, Tyrosine-protein phosphatase non-receptor type 1 (Rattus norvegicus) (UniProt P20417)", "T1 sequence (whole entry)": "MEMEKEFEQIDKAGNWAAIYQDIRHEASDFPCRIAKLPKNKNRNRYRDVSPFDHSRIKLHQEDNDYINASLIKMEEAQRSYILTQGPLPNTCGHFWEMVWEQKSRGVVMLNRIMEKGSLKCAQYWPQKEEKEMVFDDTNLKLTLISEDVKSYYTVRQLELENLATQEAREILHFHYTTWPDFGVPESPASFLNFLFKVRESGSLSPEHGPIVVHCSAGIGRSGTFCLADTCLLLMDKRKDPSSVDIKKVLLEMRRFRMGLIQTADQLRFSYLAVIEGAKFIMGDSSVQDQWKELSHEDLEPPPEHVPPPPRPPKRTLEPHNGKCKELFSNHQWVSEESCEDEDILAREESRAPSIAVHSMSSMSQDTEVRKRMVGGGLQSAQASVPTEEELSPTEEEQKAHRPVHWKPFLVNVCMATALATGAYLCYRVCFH", "test": "as §1", "assay_type": "tissue-based", "remark": "listed apart in the source"}, "[4]": {"molecular_target": "T1, Tyrosine-protein phosphatase non-receptor type 1 (Rattus norvegicus)", "test": "(§2) Inhibition of PTP1B in rat liver homogenates using p-nitro phenyl phosphate as substrate preincubated for 30 mins followed by substrate addition measured after 10 mins", "assay_type": "tissue-based"}, "[5]": {"molecular_target": "T2, Tyrosine-protein phosphatase non-receptor type 1 (Rattus norvegicus, UniProt P20417)", "T2 sequence (P20417 whole entry)": "T1 sequence (whole entry)", "test": "as §2", "assay_type": "tissue-based"}, "HEK293": {"test_system": "HEK293", "test": "Cytotoxicity against HEK293 cells after 24 hrs by MTT assay", "assay_type": "cell-based", "conditions": "Homo sapiens, HEK293, 24 h"}, "A549": {"test_system": "A549", "test": "Cytotoxicity against human A549 cells after 24 hrs by MTT assay", "assay_type": "cell-based", "conditions": "A549, 24 h"}, "Rattus norvegicus [6]": {"test_system": "Rattus norvegicus", "test": "Antidiabetic activity in Sprague-Dawley albino rat assessed as inhibition of blood glucose level at 300 mg/kg, ip administered 10 mins prior to oral glucose challenge measured after 10 mins by glucometer relative to control", "assay_type": "functional"}}, "data": [{"molecule": "SODIUM ORTHOVANAD", "values": [{"measurement": "inhibition", "setting": "[1]", "value": 60.7, "unit": "%"}]}, {"molecule": "FC(F)(F)c1ccc(-n2cc(COc3ccc(-c4nc5c(ccc6ccccc65)o4)cc3)nn2)cc1", "values": [{"measurement": "inhibition in vivo at 50 mg/kg", "setting": "Rattus norvegicus [2]", "value": 78.6, "unit": "%"}, {"measurement": "inhibition", "setting": "[3]", "value": 68.3, "unit": "%"}, {"measurement": "inhibition", "setting": "[4]", "value": "Dose-dependent effect"}, {"measurement": "IC50", "setting": "[5]", "value": 8.61, "unit": "µM"}, {"measurement": "IC50", "setting": "HEK293", "value": "> 1000", "unit": "µM"}, {"measurement": "IC50", "setting": "A549", "value": "> 1000", "unit": "µM"}]}, {"molecule": "Cc1ccc(-n2cc(COc3ccc(-c4nc5c(ccc6ccccc65)o4)cc3)nn2)cc1", "values": [{"measurement": "inhibition in vivo at 50 mg/kg", "setting": "Rattus norvegicus [2]", "value": 62.6, "unit": "%"}, {"measurement": "inhibition", "setting": "[3]", "value": 41.6, "unit": "%"}, {"measurement": "inhibition", "setting": "[4]", "value": "Dose-dependent effect"}, {"measurement": "IC50", "setting": "[5]", "value": 20.4, "unit": "µM"}, {"measurement": "IC50", "setting": "HEK293", "value": "> 1000", "unit": "µM"}, {"measurement": "IC50", "setting": "A549", "value": "> 1000", "unit": "µM"}]}, {"molecule": "COc1cccc2c1C(=O)c1c(O)c3c(c(O)c1C2=O)C[C@@](O)(C(=O)CO)C[C@@H]3O[C@H]1C[C@H](N)[C@H](O)[C@H](C)O1", "note": "[DOXORUBICIN]", "values": [{"measurement": "IC50", "setting": "HEK293", "value": 1.01, "unit": "µM"}, {"measurement": "IC50", "setting": "A549", "value": 3.98, "unit": "µM"}]}, {"molecule": "CN(C)C(=N)NC(=N)N", "note": "[METFORMIN]", "values": [{"measurement": "inhibition in vivo at 300 mg/kg", "setting": "Rattus norvegicus [6]", "value": 57.1, "unit": "%"}]}]}
